In patent US20220380347A1, “INHIBITORS OF CYSTEINE PROTEASES AND METHODS OF USE THEREOF” (Pardes Biosciences, Inc., priority 2020, published 2022):
Like-named read-outs stand apart in the source and are kept apart here.

Legend:
[1] = target: COVID-19 (nCoV-2019, SARS-CoV2) Mpro (Severe acute respiratory syndrome coronavirus 2, UniProt P0DTD1); experiment: COVID-19 (nCoV-2019, SARS-CoV2) Mpro enzymatic assay; format: biochemical; conditions: 25 nM Mpro, 25 μM substrate; read-out: COVID-19 Mpro IC50
229E Mpro = 229E Mpro (Human coronavirus 229E, UniProt P0C6X1); experiment: 229E Mpro enzymatic assay (standard methods, SARS-CoV2 Mpro assay given as exemplary); format: biochemical, human coronavirus (HCov) 229E
Chain of 229E Mpro (P0C6X1 2966-3267): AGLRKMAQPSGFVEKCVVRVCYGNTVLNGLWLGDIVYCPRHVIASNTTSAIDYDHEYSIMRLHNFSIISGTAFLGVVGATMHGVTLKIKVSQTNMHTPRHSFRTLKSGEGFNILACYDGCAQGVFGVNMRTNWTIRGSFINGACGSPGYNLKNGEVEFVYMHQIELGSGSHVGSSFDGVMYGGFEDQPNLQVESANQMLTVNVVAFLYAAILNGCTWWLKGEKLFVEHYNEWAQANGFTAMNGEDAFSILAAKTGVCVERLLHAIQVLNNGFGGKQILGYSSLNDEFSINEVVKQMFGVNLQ
Protocol: Compounds were assayed using standard methods to assess compound activity and IC50. As an exemplary for assessment of the SARS-COV2 Mpro, the C-His6-tagged Mpro (NC_045512) was cloned, expressed in E. coli and purified. The assay buffer contained 20 mM of Tris-HCl (pH 7.3), 100 mM of NaCl, 1 mM of EDTA, 5 mM of TCEP and 0.1% BSA. The final concentrations of the Mpro protein and substrate were 25 nM and 25 μM, respectively, in the Mpro enzymatic assay. The Km of the Mpro substrate for the protease was 13.5 μM.
The compounds were added to an assay plate. […] For no inhibition control (ZPE, zero percent effect), no compound was added.
IC50 values of compounds were calculated with the GraphPad Prism software using the nonlinear regression model of log(inhibitor) vs. response—Variable slope (four parameters). The inhibition activity was calculated using the formula below, IC50 values is calculated using the Inhibition % data.
Inhibition %=[(Sample-Average ZPE)/(Average HPE-Average ZPE)]*100%^#

HCov OC43 = experiment: HCoV OC43 cytopathic effect (CPE) assay, CellTiter Glo; format: cell-based, human coronavirus (HCov) OC43
Protocol: Example 238: Evaluation of antiviral activity of compounds against human coronavirus (HCov) 229E and OC43 in the cytopathic effect (CPE) assays
Compounds were assayed using standard methods against multiple coronaviral strains, including HCoV 229E and OC43 strains. The antiviral activity of compounds was calculated based on the protection of the virus-induced CPE at each concentration normalized by the virus control.
Reference compound used was remdesivir; detection reagent: CellTiter Glo.) The CPE were measured by CellTiter Glo following the manufacturer's manual. The antiviral activity of compounds was calculated based on the protection of the virus-induced CPE at each concentration normalized by the virus control.
Cell viability was measured with CellTiter Glo.

[2] = read-out: OC43 IC50 (uM) MEDIAN, median
[3] = Betacoronavirus 1, OC43, read-out: OC43 IC50 (uM) MEDIAN, median

Compound	IC50 [1]	EC50 (229E Mpro; 229E Mpro EC50)	IC50 (HCov OC43; [2])	EC50 (229E Mpro; read-out: 229E Mpro EC50)	IC50 (HCov OC43; [3])
CC(C)(C)c1ccc(N(C(=O)[C@H]2C[C@@H](Oc3ccccc3)CN2C#N)C(C(=O)NC2CCCCC2)c2cccnc2)cc1 (single isomer, unassigned) [307 Isomer 2]	> 30 µM	2 to 10 µM	2 to 10 µM		
CC(C)(C)c1ccc(N(C(=O)[C@H]2CCCN2C#N)C(C(=O)NCCN2CCOCC2)c2cccnc2)cc1 (single isomer, unassigned) [391 Isomer 1]	< 2 µM	< 2 µM	< 2 µM		
CC(C)(C)c1ccc(N(C(=O)[C@H]2CCCN2C#N)C(C(=O)NCCN2CCOCC2)c2cccnc2)cc1 (single isomer, unassigned) [391 Isomer 2]	10 to 30 µM	2 to 10 µM	10 to 30 µM		
CC(C)(C)c1ccc(N(C(=O)[C@H]2CCCN2C#N)C(C(=O)NC2CCCCC2)c2cncc(F)c2)cc1 (single isomer, unassigned) [475 Isomer 1]	< 2 µM	< 2 µM	2 to 10 µM		
CC(C)(C)c1ccc(N(C(=O)[C@H]2CCCN2C#N)C(C(=O)NC2CCCCC2)c2cncc(F)c2)cc1 (single isomer, unassigned) [475 Isomer 2]	10 to 30 µM	2 to 10 µM	10 to 30 µM		
CC(C)(C)c1ccc(N(C(=O)[C@H]2C[C@@H](O)CN2C#N)C(C(=O)NC2CCCC2)c2cccnc2)cc1 (single isomer, unassigned) [595 Isomer 2]	< 2 µM		< 2 µM	< 2 µM	
CC(C)(C)c1ccc(N(C(=O)[C@H]2C[C@@H](O)CN2C#N)C(C(=O)NCc2cccnc2)c2cccnc2)cc1 (single isomer, unassigned) [643 Isomer 1]	< 2 µM	< 2 µM			< 2 µM
CC(C)(C)c1ccc(N(C(=O)[C@H]2C[C@@H](O)CN2C#N)C(C(=O)NCc2cccnc2)c2cccnc2)cc1 (single isomer, unassigned) [643 Isomer 2]	2 to 10 µM		2 to 10 µM	< 2 µM	
COCCCNC(=O)C(c1cccnc1)N(C(=O)[C@H]1C[C@@H](O)CN1C#N)c1ccc(C(C)(C)C)cc1 (single isomer, unassigned) [647 Isomer 1]	< 2 µM	< 2 µM			< 2 µM
CC(C)(C)c1ccc(N(C(=O)[C@H]2C[C@@H](O)CN2C#N)C(C(=O)NC2CCCCC2)c2cncc(Cl)c2)cc1 (single isomer, unassigned) [675 Isomer 1]	< 2 µM	< 2 µM			< 2 µM
CC(C)(C)c1ccc(N(C(=O)[C@H]2C[C@@H](O)CN2C#N)C(C(=O)NC2CCCCC2)c2cncc(Cl)c2)cc1 (single isomer, unassigned) [675 Isomer 2]	2 to 10 µM		2 to 10 µM	< 2 µM	
N#CN1C[C@H](O)C[C@@H]1C(=O)N(c1ccc(C2(C(F)(F)F)CC2)cc1)C(C(=O)NC1CCCCC1)c1cccnc1 (single isomer, unassigned) [735 Isomer 1]	< 2 µM	< 2 µM			< 2 µM
N#CN1C[C@H](O)C[C@@H]1C(=O)N(c1ccc(C2(C(F)(F)F)CC2)cc1)C(C(=O)NC1CCCCC1)c1cccnc1 (single isomer, unassigned) [735 Isomer 2]	2 to 10 µM		2 to 10 µM	< 2 µM	
CC(C)(C)c1ccc(N(C(=O)[C@H]2CCCN2C#N)C(C(=O)NC2CCCCC2)c2cccnc2)cc1 (single isomer, unassigned) [Compound 130a]	< 2 µM	< 2 µM			
CC(C)(C)c1ccc(N(C(=O)[C@H]2CCCN2C#N)C(C(=O)NC2CCCCC2)c2cccnc2)cc1 (single isomer, unassigned) [Compound 130b]	> 30 µM	2 to 10 µM			
CC(C)(C)OC(=O)N1CCC[C@@H]1C(=O)N(c1ccc(C(C)(C)C)cc1)C(C(=O)NC1CCCCC1)c1cccnc1 (single isomer, unassigned) [Compound 131a]	> 30 µM	> 30 µM			
CC(C)(C)c1ccc(N(C(=O)[C@@H]2CCCN2)C(C(=O)NC2CCCCC2)c2cccnc2)cc1 (single isomer, unassigned) [Compound 131c]	> 30 µM	> 30 µM			
N#CN1C[C@H]2C[C@H]2[C@@H]1C(=O)N(c1ccc(S(F)(F)(F)(F)F)cc1)C(C(=O)NC1CCC(F)(F)CC1)c1cncc(F)c1 (single isomer, unassigned) [Compound 1095b Isomer 2]	< 2 µM		< 2 µM		
CC(C)(C)c1ccc(N(C(=O)c2cnc[nH]2)C(C(=O)NC2CCCCC2)c2cccnc2Br)cc1 (stereo not shown) [Compound 100a]	> 30 µM				
CC(C)(C)c1ccc(N(C(=O)c2cnc[nH]2)C(C(=O)NC2CCCCC2)c2ccc(C(F)(F)F)nc2Cl)cc1 (stereo not shown) [Compound 102a]	> 30 µM				

Compound	IC50 [1]	EC50 (229E Mpro; 229E Mpro EC50)	IC50 (HCov OC43; [2])	EC50 (229E Mpro; read-out: 229E Mpro EC50)	IC50 (HCov OC43; [3])
CC(C)(C)c1ccc(N(C(=O)c2cnc[nH]2)C(C(=O)NC2CCCCC2)c2cncnc2)cc1 (stereo not shown) [Compound 104, N-(4-tert-butylphenyl)-N-[2-(cyclohexylamino)-2-oxo-1-pyrimidin-5-yl-ethyl]-1H-imidazole-5-carboxamide]	2 to 10 µM				
CC(C)(C)c1ccc(N(C(=O)c2cnc[nH]2)C(C(=O)NC2CCCCC2)c2ncc(Cl)nc2C#N)cc1 (stereo not shown) [Compound 110]	> 30 µM	> 30 µM			
CC(C)(C)c1ccc(N(C(=O)c2nsnc2C#N)C(C(=O)NC2CCCCC2)c2cccnc2)cc1 (stereo not shown) [Compound 122, N-(4-tert-butylphenyl)-4-cyano-N-[2-(cyclohexylamino)-2-oxo-1-(3-pyridyl)ethyl]-1,2,5-thiadiazole-3-carboxamide]				> 30 µM	
CC(C)(C)c1ccc(N(C(=O)c2nsnc2C(N)=O)C(C(=O)NC2CCCCC2)c2cccnc2)cc1 (stereo not shown) [Compound 123a]	> 30 µM	> 30 µM			
CC(C)(C)c1ccc(N(C(=O)c2nccnc2C(N)=O)C(C(=O)NC2CCCCC2)c2cccnc2)cc1 (stereo not shown) [Compound 124a]	> 30 µM	> 30 µM			
CC(C)(C)OC(=O)N1CC(C(=O)N(c2ccc(C(C)(C)C)cc2)C(C(=O)NC2CCCCC2)c2cccnc2)C1 (stereo not shown) [Compound 126]	> 30 µM	> 30 µM			
CC(C)(C)c1ccc(N(C(=O)C2CNC2)C(C(=O)NC2CCCCC2)c2cccnc2)cc1 (stereo not shown) [Compound 127]	> 30 µM	> 30 µM			
CC(C)(C)OC(=O)N1CC(C)(C(=O)N(c2ccc(C(C)(C)C)cc2)C(C(=O)NC2CCCCC2)c2cccnc2)C1 (stereo not shown) [Compound 129]	> 30 µM	> 30 µM			
CC1(C(=O)N(c2ccc(C(C)(C)C)cc2)C(C(=O)NC2CCCCC2)c2cccnc2)CNC1 (stereo not shown) [Compound 129a]	> 30 µM	> 30 µM			
CC(C)(C)c1ccc(N(C(=O)[C@@H]2CCCN2C#N)C(C(=O)NC2CCCCC2)c2cccnc2)cc1 (stereo partly shown) [Compound 130c]	> 30 µM	> 30 µM			
CC(C)(C)OC(=O)N1CCC[C@@H]1C(=O)N(c1ccc(C(C)(C)C)cc1)C(C(=O)NC1CCCCC1)c1cccnc1 (stereo partly shown) [Compound 131b]	> 30 µM			> 30 µM	
CC(C)(C)c1ccc(N(C(=O)[C@@H]2CCCN2)C(C(=O)NC2CCCCC2)c2cccnc2)cc1 (stereo partly shown) [Compound 131d]	> 30 µM			> 30 µM	
CC(C)(C)c1ccc(N(C(=O)[C@H]2N(C#N)CC2(C)C)C(C(=O)NC2CCCCC2)c2cccnc2)cc1 (stereo partly shown) [Compound 136a]	> 30 µM	> 30 µM			
CC(C)(C)c1ccc(N(C(=O)[C@H]2NCC2(C)C)[C@H](C(=O)NC2CCCCC2)c2cccnc2)cc1 [Compound 136b]	> 30 µM	> 30 µM			
CC(C)(C)c1ccc(N(C(=O)[C@H]2NCC2(C)C)[C@@H](C(=O)NC2CCCCC2)c2cccnc2)cc1 [Compound 136c]	> 30 µM	> 30 µM			
NC(=O)c1nc(C2CC2)ccc1N(C(=O)c1cnc[nH]1)[C@@H](C(=O)NC1CCCCC1)c1cccnc1 [Compound 832]				2 to 10 µM	
NC(=O)c1nc(C2CC2)ccc1N(C(=O)c1cnc[nH]1)[C@H](C(=O)NC1CCCCC1)c1cccnc1 [Compound 833]	2 to 10 µM	2 to 10 µM			
CC(C)(C)c1ccc(N(C(=O)[C@@H]2CCN2)[C@H](C(=O)NC2CCCCC2)c2cccnc2)cc1 [Compound 846]				< 2 µM	
CC(C)(C)c1ccc(N(C(=O)c2scnc2C#N)C(C(=O)NC2CCCCC2)c2cccnc2)cc1 (stereo not shown) [Compound 899, N-(4-tert-butylphenyl)-4-cyano-N-[2-(cyclohexylamino)-2-oxo-1-(3-pyridyl)ethyl]thiazole-5-carboxamide]	> 30 µM				
CC(C)(C)c1ccc(N(C(=O)c2scnc2Cl)C(C(=O)NC2CCCCC2)c2cccnc2)cc1 (stereo not shown) [Compound 899a]	> 30 µM				
